The supplement of paper PMC10307832

Tests used:
Assay in all cases: relative viability (nuclei count vs DMSO), 5 days (fraction); higher = more cells survive
[1] = compound: CC(C)C[C@H](NC(=O)[C@H](Cc1ccccc1)NC(=O)c1cnccn1)B(O)O [Bortezomib] + C[C@]1(O)C[C@@H](c2nc(-c3ccc4ccc(-c5ccccc5)nc4c3)c3c(N)nccn32)C1 [Linsitinib] (partner 1 µM)
In short: (§1)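 For relative viability, nuclei counts in treated wells were divided by those in vehicle wells. Lung cancer cell lines had been pin-tool dosed in 1536-well plates the day after seeding and cultured for 5 days, then fixed and stained in one step (final 0.05% Triton X-100, 1% formaldehyde, 1 ug/ml Hoechst) and imaged at 4×. Doses were one drug alone or a fixed anchor-drug dose plus five library-drug doses (not always all listed) in √10 steps, and values are duplicate-plate medians.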

[2] = compound: CC1=CC(=NN1)NC2=CC(=NC(=N2)/C=C/C3=CC=CC=C3)N4CCN(CC4)C + C[C@@H](Oc1cc(-c2cnn(C3CCNCC3)c2)cnc1N)c1c(Cl)ccc(F)c1Cl [Crizotinib] (partner 1 µM)
In short: as §1

[3] = compound: CC1=CC(=NN1)NC2=CC(=NC(=N2)/C=C/C3=CC=CC=C3)N4CCN(CC4)C + Nc1nc2[nH]cc(CCc3ccc(C(=O)N[C@@H](CCC(=O)O)C(=O)O)cc3)c2c(=O)[nH]1 [Pemetrexed] (partner 0.2 µM)
In short: as §1

[4] = compound: COC1=CC(c2cc3ccccc3[nH]2)=N/C1=C\c1[nH]c(C)cc1C [Obatoclax] + Cc1cc(Nc2cc(N3CCN(C)CC3)nc(Sc3ccc(NC(=O)C4CC4)cc3)n2)n[nH]1 [Tozasertib] (partner 0.1 µM)
In short: as §1

Cell Line | relative viability ([1]; first compound 0.0002 µM) | relative viability ([1]; first compound 0.002 µM) | relative viability ([1]; first compound 0.006325 µM) | relative viability ([1]; first compound 0.02 µM) | relative viability ([2]; first compound 0.08 µM) | relative viability ([2]; first compound 0.253 µM) | relative viability ([2]; first compound 0.8 µM) | relative viability ([2]; first compound 2.53 µM) | relative viability ([2]; first compound 8 µM) | relative viability ([3]; first compound 0.08 µM) | relative viability ([3]; first compound 0.253 µM) | relative viability ([3]; first compound 0.8 µM) | relative viability ([3]; first compound 2.53 µM) | relative viability ([3]; first compound 8 µM) | relative viability ([4]; first compound 0.01 µM) | relative viability ([4]; first compound 0.03162 µM) | relative viability ([4]; first compound 0.3162 µM) | relative viability ([4]; first compound 1 µM) | relative viability ([1]; first compound 0.000632 µM) | relative viability ([4]; first compound 0.1 µM)
NCI-H2405 | 0.868 | 0.32 | 0.147 | 0.169 | 0.868 | 0.818 | 0.803 | 0.694 | 0.202 | 1.02 | 0.979 | 1.04 | 0.503 | 0.162 | 0.789 | 0.905 | 0.833 | 0.882 |  | 
NCI-H3122 | 1.01 | 1.09 | 0.606 | 0.179 | 0.285 | 0.318 | 0.253 | 0.268 | 0.168 | 0.2 | 0.203 | 0.206 | 0.186 | 0.147 | 0.389 | 0.361 | 0.373 | 0.391 | 1.04 | 0.382
PC-3 [JPC-3] | 0.989 | 0.87 | 0.916 | 0.186 | 0.931 | 1 | 0.917 | 0.878 | 0.74 | 1.15 | 1.2 | 1.03 | 0.849 | 0.361 | 0.913 | 0.85 | 0.81 | 0.859 | 0.929 | 0.87
PC-14 | 0.941 | 0.974 | 0.152 | 0.0932 | 0.831 | 1 | 0.872 | 0.494 | 0.0811 | 0.14 | 0.134 | 0.15 | 0.0655 | 0.0336 | 0.553 | 0.562 | 0.535 | 0.348 | 0.917 | 0.473
RERF-LC-KJ | 0.859 | 0.908 | 0.366 | 0.203 | 0.832 | 0.82 | 0.747 | 0.617 | 0.234 | 0.439 | 0.484 | 0.484 | 0.397 | 0.224 | 0.444 | 0.536 | 0.493 | 0.281 |  | 0.487
SK-LU-1 | 0.986 | 1.42 | 0.174 | 0.159 | 1.01 | 0.792 | 0.725 | 0.274 | 0.137 | 1 | 0.943 | 0.933 | 0.372 | 0.127 | 0.346 | 0.354 | 0.184 | 0.154 | 1.04 | 0.342
SK-MES-1 | 1.08 | 1.1 | 0.54 | 0.189 | 0.96 | 1.01 | 0.903 | 0.422 | 0.133 | 0.908 | 0.995 | 0.89 | 0.213 | 0.162 | 0.859 | 0.999 | 0.344 | 0.285 | 1.06 | 0.787
SW 1573 | 0.663 | 0.766 | 0.144 | 0.0774 | 0.886 | 0.829 | 0.604 | 0.194 | 0.1 | 0.802 | 0.852 | 0.735 | 0.126 | 0.0679 | 0.222 | 0.208 | 0.143 | 0.129 | 0.775 | 0.145
UMC-11 | 0.937 | 0.936 | 0.375 | 0.176 | 0.519 | 0.528 | 0.41 | 0.0737 | 0.062 | 0.74 | 0.705 | 0.481 | 0.148 | 0.122 | 0.202 | 0.197 | 0.249 | 0.22 | 0.974 | 0.234
